Patent publication US12065427B2, “Heterocyclic compounds capable of activating STING” (BOEHRINGER INGELHEIM INTERNATIONAL GMBH, priority 2021, dated 2024)

Experiments:
STING HAQ-variant = biological target: T1, STING HAQ-variant (Homo sapiens, UniProt Q86WV6, G230A/H232R/R293Q/R71H); assay: IRF-inducible SEAP reporter assay in THP1-Blue ISG cells, STING HAQ-variant; assay type: cell-based; details: STING HAQ-variant (parental or re-introduced), 24 hours incubation
T1 construct: parental THP1-Blue™ ISG cell lines (which express endogenously HAQ); host or cells: THP1-Blue ISG (parental, endogenous HAQ) or STING-KO clone re-transduced with HAQ (MSCV-ires-GFP-Blasti)
Text: In Vitro Cytokine Induction Measured Via Activation of an Interferon Regulatory Factor Inducible Reporter Gene
Activation of the STING protein expressed in cell lines results in an increase of interferon production. By the stable integration of an interferon regulatory factor (IRF)-inducible SEAP gene (secreted embryonic alkaline phosphatase) reporter construct the functional interferon signaling pathway can be monitored. Using Invivogen's THP1-Blue™ ISG colorimetric enzyme assay and a suitable optical density (OD) reader the activity of SEAP can be detected and quantified. This technique could be used to characterize pharmacological modification of the STING pathway.
Several single nucleotide polymorphisms have been identified in the human STING gene. To determine the activity of the above described compounds, THP1-Blue™ ISG reporter cell lines expressing the different human STING variants have been generated. To do so, the endogenous human STING was first deleted using the CRISPR/CAS9 system: THP1-Blue ISG cells were electroporated with ALL-IN-ONE CRISPR plasmids targeting the STING gene (purchased from Sigma encoding the gRNA and GFP as a reporter gene for successful transduction). GFP positive cells then were sorted 24 h post transfection and expanded. Cells were then dispersed in semisolid methocel medium to allow single cell clone isolations. Clones were then screened for cGAMP responsiveness using the Quanti-Blue™ reporter assay. Non-responsive clones were subsequently analysed for STING loss by western blotting and sequencing of the STING locus.
For the overexpression of the human STING variants, a confirmed THP1-Blue™ ISG hSTING KO clone was transduced with individual retroviral plasmids (MSCV-ires-GFP-Blasti) encoding the allelic variants of hSTING (WT (H232R), HAQ, R232H, AQ and R293Q). Transduced cells were sorted for different levels of GFP fluorescence and STING allele expression was analysed by western blot.
Measurements of SEAP activity were performed in THP1-Blue™ ISG cells stably expressing the different human STING isoforms and the IRF-inducible SEAP reporter construct. Cells were cultivated in RPMI1640 medium with 10% fetal calf serum, 50 μg/ml Penicillin-Streptomycin, 100 μg/ml Zeocin, and 100 μg/ml Normocin in a 37°, 95% humidity and 5% CO2 incubator.
In preparation for the assay, the cells were distributed into the assay plates with a density of 10000 cells/15 μL per well. Compounds were prepared by an 8 point serial dilution in 50% aqueous DMSO and a final dilution step into medium to ensure a final DMSO concentration of 0.5% in the assay. 5 μL of diluted compounds were added to the plates, followed by a 24 hours incubation at 37° C.
At the day of the assay, 75 μl per well of Quanti-Blue™ reagent was added to all wells of the plate and the plate was incubated another 30 minutes at 37° C. The OD at 620 nm was measured on the EnVision reader (PerkinElmer).
EC50 values and Hill slopes were derived from 8-point four parametric non-linear curve fittings with the Megalab software (Boehringer Ingelheim) using the OD at 620 nm.
Data of EC50 values can be found in tables 2a-2e.
Data of EC50 values on STING HAQ-variant can be found in table 2a. Shown data below were either derived from the parental THP1-Blue™ ISG cell lines (which express endogenously HAQ) or from genetically engineered THP1-Blue™ ISG cell lines in which first STING has been knocked-out and the HAQ specific STING isoform has been re-introduced as described above.

in vitro = details: human, Caco-2, pH 7.4
[1] = system: Human STING (hSTING, residues 155-341); assay: Interaction with hSTING as determined by Differential Scanning Fluorimetry (DSF); assay type: binding; details: 100 μM test compounds, 5 μM target protein
Procedure: Interaction with hSTING as Determined by Differential Scanning Fluorimetry (DSF)
In DSF, the temperature at which a protein unfolds, also called the melting temperature Tm, is measured by changes in fluorescence of a dye that binds to the hydrophobic parts of the protein. Tm shifts upon binding of a small molecule are correlated with the binding affinity of this small molecule. As target protein, Human STING (hSTING, residues 155-341, MW: 21578.4 Da; protein stock solution: c=1302 μM stock solution in 20 mM Tris, 100 mM NaCl, 2 mM TCEP pH 8.8) was used, as assay buffer 20 mM Tris, 150 mM NaCI pH7.5 was added where and as necessary.
Final concentrations of components in assay: 100 μM test compounds, 5 μM target protein, “5×” SYPR Orange (from stock solution SYPRO orange solution in DMSO (invitrogen cat.-no. S6650-500 ul), concentration “5000×”)
1) Dilutions of compound stock solutions (10 mM in DMSO) were prepared in assay buffer (20 mM Tris, 150 mM NaCl; pH7.5)
2) 5 μl fluorescent dye stock solution (5000×SYPRO Orange in DMSO) was mixed with 19 μl target protein (1302 μM) and 976 μl assay buffer.
3) 2 μl of this protein-dye-mixture (25×SYPRO Orange and 25 μM Protein) was added to 8 μl diluted compound solution as prepared in step 1. Final volume was 10 μl.
4) With every 20 compounds, two negative controls were measured.
5) The plates were prepared for duplicate measurement and centrifuged for 2 min at 1000 g.
6) For the measurement, a CFX384 Real-Time System (Bio-Rad) was used. The run consisted of 140 cycles with 0.5° C./cycle (temperature ramp 15 s/cycle, 25° C. to 95° C.).
Data analysis: The melting curves were processed in Bio-Rad CFX Manager. Peak type was set to “negative”. Two replicates of TM (melting temperature) measurements were averaged and the standard deviation was calculated.

T1 sequence (Q86WV6 whole entry R71H/G230A/H232R/R293Q): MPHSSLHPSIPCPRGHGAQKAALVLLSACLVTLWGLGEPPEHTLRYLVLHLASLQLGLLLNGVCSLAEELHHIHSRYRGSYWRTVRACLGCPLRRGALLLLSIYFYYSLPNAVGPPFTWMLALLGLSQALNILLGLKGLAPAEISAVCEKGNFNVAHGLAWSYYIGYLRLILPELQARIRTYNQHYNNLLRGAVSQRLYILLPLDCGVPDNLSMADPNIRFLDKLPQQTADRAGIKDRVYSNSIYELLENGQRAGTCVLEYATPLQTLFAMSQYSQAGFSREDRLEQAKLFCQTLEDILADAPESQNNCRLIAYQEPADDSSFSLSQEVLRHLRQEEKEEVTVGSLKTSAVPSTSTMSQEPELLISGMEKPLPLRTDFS

Structure (SMILES) | EC50 (STING HAQ-variant) [µM] | Papp A→B at 10 μM (in vitro) [×10⁻⁶ cm/s] | efflux ratio at 10 μM (in vitro) | thermal shift (ΔTm) [1] [K]
Cc1cccc2c(-c3cccn4nccc34)nn(-c3ccc(N4CCC(C(=O)O)CC4)nc3)c12 [compound 60, 1-[5-(7-methyl-3-{pyra-zolo[1,5-a]pyridin-4-yl}-1H-indazol-1-yl)pyridin-2-yl]piperidine-4-carboxylic acid] | 6.6 | 19 | 0.9 | 
C#Cc1cccc2c(-c3cccc4nn(C)cc34)nn(-c3ccc(N4CC5C(C4)C5C(=O)O)nc3)c12 (stereo not shown) [Example #74, 3-(5-{7-ethynyl-2′-methyl-1H,2′H-[3,4′-biindazol]-1-yl}pyridin-2-yl)-3-azabicyclo[3.1.0]hexane-6-carboxylic acid] | 4.3 |  |  | 16
Cc1cccc2c(-c3cccc4nn(C)cc34)nn(-c3ccc(N4CCC(N5CCCC5=O)CC4)nc3)c12 [compound 21, 1-[1-(5-{2′,7-dimethyl-1H,2′H-[3,4′-biindazol]-1-yl}pyridin-2-yl)piperidin-4-yl]pyrrolidin-2-one] | 4.7 | 23 | 0.3 | 20
Cc1cccc2c(-c3cccc4nn(C)cc34)nn(-c3ccc(N4CC5(CCS(=O)(=O)CC5)C4)nc3)c12 [compound 4, 2-(5-{2′,7-dimethyl-1H,2′H-[3,4′-biindazol]-1-yl}pyri-din-2-yl)-7λ^6-thia-2-azaspiro[3.5]nonane-7,7-dione] | 1.1 |  |  | 20
CCOC(=O)C1CCN(c2ccc(-n3nc(-c4cccc5nn(C)cc45)c4cccc(C)c43)cn2)CC1 [compound 31, ethyl 1-(5-{2′,7-dimethyl-1H,2′H-[3,4′-biindazol]-1-yl}pyridin-2-yl)piperidine-4-carboxylate] | 5.4 |  | 0.6 | 
COC(=O)c1ccc2c(-c3cccc4nn(C)cc34)nn(-c3ccc(N4CCC(S(C)(=O)=O)CC4)nc3)c2c1C [compound 25, methyl 1-[6-(4-meth-anesulfonylpiperidin-1-yl)pyridin-3-yl]-2′,7-di-methyl-1H,2′H-[3,4′-biindazole]-6-carboxylate] | 0.2 |  |  | 25
Cc1cccc2c(-c3cccc4nn(C)cc34)nn(-c3ccc(N4CCC(c5cnn(C)c5)CC4)nc3)c12 [compound 20, 2′,7-dimethyl-1-{6-[4-(1-methyl-1H-pyrazol-4-yl)pi-peridin-1-yl]pyridin-3-yl}-1H,2′H-3,4′-biindazole] | 2.2 |  | 0.8 | 20
Cc1cccc2c(-c3cccc4nn(C)cc34)nn(-c3ccc(N4CCN5C(=O)OCC5C4)nc3)c12 (stereo not shown) [compound 8, 7-(5-{2′,7-dimethyl-1H,2′H-[3,4′-biindazol]-1-yl}pyri-din-2-yl)-hexahydro-1H-[1,3]oxazolo[3,4-a]pyrazin-3-one] | 1.2 |  |  | 21

Now from value to compound, other results behind:

EC50 (STING HAQ-variant) [µM] | Papp A→B at 10 μM (in vitro) [×10⁻⁶ cm/s] | efflux ratio at 10 μM (in vitro) | Structure (SMILES) | thermal shift (ΔTm) [1] [K]
1.9 |  |  | Cc1cccc2c(-c3cccc4nn(C)cc34)nn(-c3ccc(N4CCCNCC4)nc3)c12 [compound 45, 1-(6-(1,4-diazepan-1-yl)pyridin-3-yl)-2′,7-dimethyl-1H,2′H-3,4′-biindazole] | 19
3.1 | 39 | 0.4 | CC(=O)N(C)C1CCN(c2ccc(-n3nc(-c4cccc5nn(C)cc45)c4cccc(C)c43)cn2)C1 (stereo not shown) [Example #6, N-[1-(5-{2′,7-dimethyl-1H,2′H-[3,4′-biindazol]-1-yl}pyridin-2-yl)pyrrolidin-3-yl]-N-methylacetamide] | 22
1.9 |  | 0.4 | Cc1cccc2c(-c3cccc4nn(C)cc34)nn(-c3ccc(N4CCCN(C=O)CC4)nc3)c12 [compound 52, 4-(5-{2′,7-dimethyl-1H,2′H-[3,4′-biindazol]-1-yl}pyridin-2-yl)-1,4-di-azepane-1-carbalde-hyde] | 21
5.2 | 32 | 0.5 | Cc1cccc2c(-c3cccc4nn(C)cc34)nn(-c3ccc(N4CCC(C)(C(=O)O)CC4)nc3)c12 [compound 27, 1-(5-{2′,7-dimethyl-1H,2′H-[3,4′-biindazol]-1-yl}pyri-din-2-yl)-4-methylpiperi-dine-4-carboxylic acid] | 22
3.2 | 27 | 0.3 | Cc1cccc2c(-c3cccc4nn(C)cc34)nn(-c3ccc(N4CC5CC4CO5)nc3)c12 (stereo not shown) [compound 11, 2′,7-dimethyl-1-(6-{2-oxa-5-azabicyclo[2.2.1]heptan-5-yl}pyridin-3-yl)-1H,2′H-3,4′-biindazole] | 21
4.4 |  | 0.5 | Cc1cccc2c(-c3cccc4nn(C)cc34)nn(-c3ccc(-c4ccc(S(C)(=O)=O)cc4)nc3)c12 [compound 73, 1-[6-(4-methanesulfonylphenyl)pyridin-3-yl]-2′,7-dimethyl-1H,2′H-3,4′-biindazole] | 
6.9 | 39 | 0.3 | COCCNc1ccc(-n2nc(-c3cccc4nn(C)cc34)c3cccc(C)c32)cn1 [compound 14, 5-{2′,7-dimethyl-1H,2′H-[3,4′-biindazol]-1-yl}-N-(2-methoxyethyl)pyridin-2-amine] | 18
